Source: patent US20230002377A1, “THERAPEUTIC COMBINATIONS OF DRUGS AND METHODS OF USING THEM” (HARMONY BIOSCIENCES, LLC, priority 2020, published 2023)

Legend:
MCHR1 = MCHR1 (Homo sapiens, UniProt Q99705); test: Contribution of N-acetyl metabolite to MCHR1 antagonism
Source text: (§1) By substituting the hydrogens with deuterium on the carbon(s) adjacent to the nitrogen which is acetylated (see for example, Examples 5 to 7), acetylation process can be slowed down to reduce the formation of this metabolite.

[1] = Metabolite level of Formula II in phase I clinical trial; assay type: in vivo, human; settings: healthy volunteers
Source text: as §1

NET = NET (Homo sapiens, UniProt P23975); settings: at efficacious doses; cited from earlier work
PWS patients = settings: standard mg/day dosing, cited from earlier work
[2] = molecular target: Transporter, Norepinephrine (NET) (Homo sapiens, UniProt P23975); test: NET radioligand binding ([125I] RTI-55), Eurofins; settings: for inhibition at 0.01 µM: read-out: NET, % inhibition, 10 nM compound; for inhibition at 0.1 µM: read-out: NET, % inhibition, 100 nM compound
Method: Source: Human recombinant MDCK cells;
Incubation Time/Temp: 3 hours @ 4° C.;
(§2) Incubation Buffer: 50 mM Tris-HCl, pH 7.4, 100 mM NaCl, 1 μM Leupeptin, 10 μM PMSF;
Non-Specific Ligand: 10.0 μM Desipramine;
(§3) Quantitation Method: Radioligand Binding;

[3] = molecular target: Transporter, Dopamine (DAT) (Homo sapiens, UniProt Q01959); test: DAT radioligand binding ([125I] RTI-55), Eurofins; settings: read-out: DAT, % inhibition, 100 nM compound
Method: Source: Human recombinant CHO—S cells;
Incubation Time/Temp: 3 hours @ 4° C.;
as §2
Non-Specific Ligand: 10.0 μM Nomifensine;
Specific Binding: 90% (Historical Values);
as §3

DAT = molecular target: T1, DAT (Homo sapiens, UniProt Q01959); settings: approved monoamine reuptake inhibitors at efficacious doses, cited from earlier work
T1 construct: host or cells: living brain (PET)
T1 sequence (Q01959 whole entry): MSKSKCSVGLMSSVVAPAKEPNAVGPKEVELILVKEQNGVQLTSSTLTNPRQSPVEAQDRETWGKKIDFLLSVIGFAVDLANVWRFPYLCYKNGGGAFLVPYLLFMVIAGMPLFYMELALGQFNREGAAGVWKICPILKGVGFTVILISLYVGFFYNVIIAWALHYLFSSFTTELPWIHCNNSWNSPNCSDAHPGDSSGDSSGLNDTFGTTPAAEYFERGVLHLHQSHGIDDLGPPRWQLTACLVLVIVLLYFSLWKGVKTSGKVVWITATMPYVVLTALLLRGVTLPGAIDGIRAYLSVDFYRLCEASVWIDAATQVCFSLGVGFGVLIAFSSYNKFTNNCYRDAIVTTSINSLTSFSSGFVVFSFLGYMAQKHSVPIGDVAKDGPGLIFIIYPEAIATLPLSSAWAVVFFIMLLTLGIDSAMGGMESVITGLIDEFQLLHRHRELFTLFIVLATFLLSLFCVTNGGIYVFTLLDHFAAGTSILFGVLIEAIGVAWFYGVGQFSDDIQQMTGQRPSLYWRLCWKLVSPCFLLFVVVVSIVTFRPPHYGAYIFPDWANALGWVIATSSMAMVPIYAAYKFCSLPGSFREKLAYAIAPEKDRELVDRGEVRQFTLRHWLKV

Transporter, Norepinephrine (NET), sequence (P23975 whole entry): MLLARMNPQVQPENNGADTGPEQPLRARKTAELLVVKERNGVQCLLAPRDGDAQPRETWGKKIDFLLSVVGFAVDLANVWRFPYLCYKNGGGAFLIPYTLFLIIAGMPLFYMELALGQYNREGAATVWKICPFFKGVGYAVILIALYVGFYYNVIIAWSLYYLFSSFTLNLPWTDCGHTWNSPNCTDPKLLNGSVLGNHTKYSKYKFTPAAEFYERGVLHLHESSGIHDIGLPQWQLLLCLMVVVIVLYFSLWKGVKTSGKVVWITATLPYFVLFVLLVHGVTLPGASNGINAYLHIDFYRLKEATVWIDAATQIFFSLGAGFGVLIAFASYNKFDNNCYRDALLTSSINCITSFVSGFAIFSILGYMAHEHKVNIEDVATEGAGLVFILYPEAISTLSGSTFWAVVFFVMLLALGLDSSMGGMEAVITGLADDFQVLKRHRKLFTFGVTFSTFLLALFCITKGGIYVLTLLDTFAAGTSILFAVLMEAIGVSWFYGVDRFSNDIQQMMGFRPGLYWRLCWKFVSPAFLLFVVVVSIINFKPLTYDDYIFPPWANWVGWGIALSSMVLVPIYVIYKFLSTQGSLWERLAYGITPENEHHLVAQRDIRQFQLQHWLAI
Transporter, Dopamine (DAT), sequence (Q01959 whole entry): as the sequence (Q01959 whole entry) above
MCHR1, sequence (Q99705 whole entry, species assumed): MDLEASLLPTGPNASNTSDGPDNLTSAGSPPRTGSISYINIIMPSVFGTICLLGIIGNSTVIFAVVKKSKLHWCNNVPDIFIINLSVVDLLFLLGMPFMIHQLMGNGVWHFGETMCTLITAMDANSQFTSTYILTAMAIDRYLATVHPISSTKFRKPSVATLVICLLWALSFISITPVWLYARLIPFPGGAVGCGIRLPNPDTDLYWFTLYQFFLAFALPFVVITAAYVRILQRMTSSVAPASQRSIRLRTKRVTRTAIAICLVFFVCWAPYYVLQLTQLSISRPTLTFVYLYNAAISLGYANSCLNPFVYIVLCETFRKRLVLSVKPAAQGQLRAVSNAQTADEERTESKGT
NET, sequence (P23975 whole entry): as the sequence (P23975 whole entry) above

CC(=O)N1CCc2c(c3ccc(-n4ccc(OCc5ccc(F)cn5)cc4=O)cc3n2C)C1 [1-(2-acetyl-5-methyl-2,3,4,5-tetrahydro-1H-pyrido[4,3-b]indol-7-yl)-4-((5-fluoropyridin-2-yl)methoxy)pyridin-2(1H)-one]
contribution to the pharmacology of MCHR1 antagonism (MCHR1): does not contribute to the pharmacology of MCHR1 antagonism | amount of metabolite comparing to parent compound Formula II [1]: very significant

COc1ccc(C(CN(C)C)C2(O)CCCCC2)cc1 (stereo not shown) [Venlafaxine, venlafaxine]
NET occupancy (NET): 8-61%

CCOC[C@@H]1[C@@H](c2ccc(Cl)c(Cl)c2)C[C@@H]2CC[C@H]1N2C [tesofensine]
hyperphagia in patients with the appropriate plasma drug level (PWS patients; PWS patients): hyperphagia controlled completely | patients with plasma drug levels exceeding the safety levels who discontinued the treatment due to adverse events (PWS patients; PWS patients): 2/3 | efficacy after lowering the dosing for all patients (PWS patients; lowered dose): no efficacy

[2H]C1([2H])NCc2cc(-c3ccc4ncnn4c3)ccc2C1([2H])c1ccc(Cl)c(Cl)c1 (single isomer, unassigned) [Compound 16B, 7-([1,2,4]triazolo[1,5-a]pyridin-6-yl)-4-(3,4-dichlorophenyl)-1,2,3,4-tetrahydroisoquinoline-3,3,4-d3]
inhibition at 0.01 µM [2]: 49% | inhibition at 0.1 µM [2]: 72% | inhibition at 0.1 µM [3]: 76%

[2H]C1([2H])NC([2H])([2H])C([2H])(c2ccc(Cl)c(Cl)c2)c2ccc(-c3ccc4ncnn4c3)cc21 (single isomer, unassigned) [Compound 8A, 7-([1,2,4]triazolo[1,5-a]pyridin-6-yl)-4-(3,4-dichlorophenyl)-1,2,3,4-tetrahydroisoquinoline-1,1,3,3,4-d5]
inhibition at 0.01 µM [2]: 29% | inhibition at 0.1 µM [2]: 86% | inhibition at 0.1 µM [3]: 93%

CC(NC(C)(C)C)C(=O)c1cccc(Cl)c1 (stereo not shown) [Bupropion, bupropion]
Lowest Occupancy DAT (DAT; lowest reported): 14% (Bupropion)

COC(=O)C(c1ccccc1)C1CCCCN1 (stereo not shown) [Methylphenidate, methylphenidate]
Highest Occupancy DAT (DAT; highest reported): 74%

[2H]C1([2H])NCC(c2ccc(Cl)c(Cl)c2)c2ccc(-c3ccc4ncnn4c3)cc21 (single isomer, unassigned) [Compound 12A, 7-([1,2,4]triazolo[1,5-a]pyridin-6-yl)-4-(3,4-dichlorophenyl)-1,2,3,4-tetrahydroisoquinoline-1,1-d2]
inhibition at 0.01 µM [2]: 34% | inhibition at 0.1 µM [2]: 79%
